system: L. donovani axenic, strain MHOM-ET-67/L82 amastigotes; assay: In vitro activity against L. donovani; type: cell-based; settings: IC50 in L6 cells/IC50 in L. donovani
Description: (§3) The concentration of compound that inhibits parasite growth by 50% (IC50) was calculated from dose response curves for each parasite (Table 1). In addition, compounds were tested for toxicity in L6 rat skeletal myoblasts, the host cells for T. cruzi amastigotes, in order to calculate a selectivity index for each parasite [SI = IC50L6/IC50parasite]
(§4) In vitro activity against T. cruzi, T. b. rhodesiense, L. donovani and cytotoxicity assessment using L6 cells (rat skeletal myoblasts) was determined using a 96-well plate format as previously described [37]. Data were analyzed with the graphic program Softmax Pro (Molecular Devices, Sunnyvale, CA, USA), which calculated IC50 values by linear regression from the sigmoidal dose inhibition curves.

SMILES	SI (L.d.)
O=C(CCn1cnc([N+](=O)[O-])n1)Nc1cccc(OCc2ccccc2)c1 [Compound 11, N-(3-(benzyloxy)phenyl)-3-(3-nitro-1H-1,2,4-triazol-1-yl)propanamide]	35
N#Cc1ccc(-c2ccc(NC(=O)CCn3cnc([N+](=O)[O-])n3)cc2)cc1 [Compound 9, N-(4′-cyano-[1,1′-biphenyl]-4-yl)-3-(3-nitro-1H-1,2,4-triazol-1-yl)propanamide]	73

same assay, conditions: L. donovani

SMILES	antileishmanial activity class (TDR criteria)
O=C(CCn1cnc([N+](=O)[O-])n1)Nc1cccc(OCc2ccccc2)c1 [Compound 11, N-(3-(benzyloxy)phenyl)-3-(3-nitro-1H-1,2,4-triazol-1-yl)propanamide]	moderate activity
N#Cc1ccc(-c2ccc(NC(=O)CCn3cnc([N+](=O)[O-])n3)cc2)cc1 [Compound 9, N-(4′-cyano-[1,1′-biphenyl]-4-yl)-3-(3-nitro-1H-1,2,4-triazol-1-yl)propanamide]	moderately active (‘moderate activity’ (IC50 between 1.0 and 6.0 μM))

same assay, conditions: Leishmania donovani; L. donovani axenic amastigotes MHOM-ET-67/L82; means of 2 to 3 measurements, SD < 5%; read-out: L.d. IC50

SMILES	IC50
O=C(CCn1cnc([N+](=O)[O-])n1)Nc1cccc(OCc2ccccc2)c1 [Compound 11, N-(3-(benzyloxy)phenyl)-3-(3-nitro-1H-1,2,4-triazol-1-yl)propanamide]	1140 nM
N#Cc1ccc(-c2ccc(NC(=O)CCn3cnc([N+](=O)[O-])n3)cc2)cc1 [Compound 9, N-(4′-cyano-[1,1′-biphenyl]-4-yl)-3-(3-nitro-1H-1,2,4-triazol-1-yl)propanamide]	3170 nM

same assay, conditions: propanamide vs acetamide analog

SMILES	fold more potent against L. donovani than the acetamide analog
O=C(CCn1cnc([N+](=O)[O-])n1)Nc1cccc(OCc2ccccc2)c1 [Compound 11, N-(3-(benzyloxy)phenyl)-3-(3-nitro-1H-1,2,4-triazol-1-yl)propanamide]	ca. 3 fold

system: transgenic T. cruzi parasites expressing firefly luciferase; assay: not given; type: in vivo, Balb/c mice; settings: 15 mg/kg/day i.p. x 10 days
Description: A fast luminescence assay was used in an acute infected murine model, in which transgenic T. cruzi parasites expressing firefly luciferase were injected in 5 week-old Balb/c mice. Mice were injected with D-luciferin before imaging. Groups of 5 mice/group were treated i.p. for 10 consecutive days with each compound, at 13 or 15 mg/kg/day. […] The mean ratio of parasite levels was calculated after 5 and 10 days of treatment.
For in vivo studies, a Brazilian strain trypomastigotes from transgenic T. cruzi parasites expressing firefly luciferase were used as described before. Briefly, parasites (10^5 trypomastigotes) were injected in 5 week-old Balb/c mice (Taconic) and three days later mice were anesthesized by inhalation of isofluorane, followed by an injection with 150 mg/kg of D-luciferin potassium-salt in PBS. Mice were imaged 5–10 min after injection of luciferin with an IVIS 100 (Xenogen, Alameda, CA) and the data acquisition and analysis were performed with the software LivingImage (Xenogen) as described before. Treatment with test compounds started 4 days post infection at 13 or 15 mg/kg/day × 10 days, given i.p. The vehicle control was 2% methylcellulose +0.5% Tween 80 and groups of 5 mice/group were used. Mice were imaged after 5 and 10 days of treatment. The ratio of parasite levels was calculated for each animal dividing the luciferase signal after treatment by the luciferase signal on the first imaging (before treatment). Mean values of all animals in each group ± SD were used for plotting.

SMILES	toxicity symptoms in treated mice
N#Cc1ccc(-c2ccc(NC(=O)CCn3cnc([N+](=O)[O-])n3)cc2)cc1 [Compound 9, N-(4′-cyano-[1,1′-biphenyl]-4-yl)-3-(3-nitro-1H-1,2,4-triazol-1-yl)propanamide]	No toxicity symptoms were observed

same assay, conditions: 15 mg/kg/day i.p. x 10 days; acute murine model; p < 0.0001

SMILES	parasite load after 10 days of treatment
N#Cc1ccc(-c2ccc(NC(=O)CCn3cnc([N+](=O)[O-])n3)cc2)cc1 [Compound 9, N-(4′-cyano-[1,1′-biphenyl]-4-yl)-3-(3-nitro-1H-1,2,4-triazol-1-yl)propanamide]	undetectable levels

same assay, conditions: 15 mg/kg/day i.p.; compared to untreated control

SMILES	parasitic level after 5-day treatment
N#Cc1ccc(-c2ccc(NC(=O)CCn3cnc([N+](=O)[O-])n3)cc2)cc1 [Compound 9, N-(4′-cyano-[1,1′-biphenyl]-4-yl)-3-(3-nitro-1H-1,2,4-triazol-1-yl)propanamide]	Statistically significant reduction in parasitic level

system: bloodstream form T.b. brucei wild type; assay: T. brucei antiproliferating assay, wild type; type: cell-based; settings: Trypanosoma brucei, read-out: IC50 value T.b. brucei Wild type, bloodstream form; means from 4 experiments ± SD
Description: The BSF of T. brucei parasites were seeded at 1 × 10^3 mL^−1 in 200 μL of growth medium containing different concentrations of nitroheterocycle. Where appropriate, induction of the TbNTR was carried out by adding tetracycline (1 μg/mL). After incubation for 3 days at 37 °C, 20 μL of Alamar blue was added to each well and the plates incubated for a further 16 h. The cell density of each culture was determined as described before and the IC50 established.

SMILES	IC50
O=C(CCn1cnc([N+](=O)[O-])n1)Nc1cccc(OCc2ccccc2)c1 [Compound 11, N-(3-(benzyloxy)phenyl)-3-(3-nitro-1H-1,2,4-triazol-1-yl)propanamide]	4250 ± 160 nM
N#Cc1ccc(-c2ccc(NC(=O)CCn3cnc([N+](=O)[O-])n3)cc2)cc1 [Compound 9, N-(4′-cyano-[1,1′-biphenyl]-4-yl)-3-(3-nitro-1H-1,2,4-triazol-1-yl)propanamide]	120 ± 10 nM

system: not given; assay: not given; settings: not given

SMILES	melting point
O=C(CCn1cnc([N+](=O)[O-])n1)Nc1cccc(OCc2ccccc2)c1 [Compound 11, N-(3-(benzyloxy)phenyl)-3-(3-nitro-1H-1,2,4-triazol-1-yl)propanamide]	119 to 120 °C

system: T.b. rhodesiense, strain STIB 900 trypomastigotes; assay: In vitro activity against T. b. rhodesiense; type: cell-based; settings: IC50 in L6 cells/IC50 in T.b. rhodesiense
Description: (§1) Compounds in Table 1 were screened for anti-parasitic activity against three trypanosomatids: T. cruzi, T. b. rhodesiense and Leishmania donovani and compared with previously made analogs shown in orange and designated with a. […] In addition, compounds were tested for toxicity in L6 rat skeletal myoblasts, the host cells for T. cruzi amastigotes, in order to calculate a selectivity index for each parasite [SI = IC50L6/IC50parasite] (Table 1). The TDR (Special Programme for Research and Training in Tropical Diseases, World Health Organization) criteria were adopted to interpret antiparasitic activity and selectivity.
(§2) In vitro activity against T. cruzi, T. b. rhodesiense, L. donovani and cytotoxicity assessment using L6 cells (rat skeletal myoblasts) was determined using a 96-well plate format as previously described. Data were analyzed with the graphic program Softmax Pro (Molecular Devices, Sunnyvale, CA, USA), which calculated IC50 values by linear regression from the sigmoidal dose inhibition curves.

SMILES	SI (T.b.r.)
O=C(CCn1cnc([N+](=O)[O-])n1)Nc1cccc(OCc2ccccc2)c1 [Compound 11, N-(3-(benzyloxy)phenyl)-3-(3-nitro-1H-1,2,4-triazol-1-yl)propanamide]	182
N#Cc1ccc(-c2ccc(NC(=O)CCn3cnc([N+](=O)[O-])n3)cc2)cc1 [Compound 9, N-(4′-cyano-[1,1′-biphenyl]-4-yl)-3-(3-nitro-1H-1,2,4-triazol-1-yl)propanamide]	2527

same assay, conditions: Trypanosoma brucei; T.b. rhodesiense STIB 900 trypomastigotes; means of 2 to 3 measurements, SD < 5%; read-out: T.b.r. IC50

SMILES	IC50
O=C(CCn1cnc([N+](=O)[O-])n1)Nc1cccc(OCc2ccccc2)c1 [Compound 11, N-(3-(benzyloxy)phenyl)-3-(3-nitro-1H-1,2,4-triazol-1-yl)propanamide]	221 nM
N#Cc1ccc(-c2ccc(NC(=O)CCn3cnc([N+](=O)[O-])n3)cc2)cc1 [Compound 9, N-(4′-cyano-[1,1′-biphenyl]-4-yl)-3-(3-nitro-1H-1,2,4-triazol-1-yl)propanamide]	91 nM

same assay, conditions: propanamide vs acetamide analog

SMILES	fold more potent against T. b. rhodesiense than the corresponding acetamide
O=C(CCn1cnc([N+](=O)[O-])n1)Nc1cccc(OCc2ccccc2)c1 [Compound 11, N-(3-(benzyloxy)phenyl)-3-(3-nitro-1H-1,2,4-triazol-1-yl)propanamide]	22 fold
N#Cc1ccc(-c2ccc(NC(=O)CCn3cnc([N+](=O)[O-])n3)cc2)cc1 [Compound 9, N-(4′-cyano-[1,1′-biphenyl]-4-yl)-3-(3-nitro-1H-1,2,4-triazol-1-yl)propanamide]	3.7 fold

system: not listed separately; assay: Cytotoxicity in the host L6 cells; type: cell-based, rat; settings: rat, L6 cells (rat skeletal myoblasts); cytotoxicity in host L6 cells; read-out: Cyt. L6 IC50
Description: as §1, §2

SMILES	IC50
O=C(CCn1cnc([N+](=O)[O-])n1)Nc1cccc(OCc2ccccc2)c1 [Compound 11, N-(3-(benzyloxy)phenyl)-3-(3-nitro-1H-1,2,4-triazol-1-yl)propanamide]	40200 nM
N#Cc1ccc(-c2ccc(NC(=O)CCn3cnc([N+](=O)[O-])n3)cc2)cc1 [Compound 9, N-(4′-cyano-[1,1′-biphenyl]-4-yl)-3-(3-nitro-1H-1,2,4-triazol-1-yl)propanamide]	230000 nM

system: L6 cells (rat skeletal myoblasts); assay: Cytotoxicity in the host L6 cells; type: cell-based; settings: 9 vs 10, 9a vs 10a
Description: as §1, §2

SMILES	fold less toxic towards L6 cells relative to unsubstituted compounds 10 and 10a
N#Cc1ccc(-c2ccc(NC(=O)CCn3cnc([N+](=O)[O-])n3)cc2)cc1 [Compound 9, N-(4′-cyano-[1,1′-biphenyl]-4-yl)-3-(3-nitro-1H-1,2,4-triazol-1-yl)propanamide]	> 6 fold

system: T. cruzi, strain Tulahuen C4 amastigotes; assay: In vitro activity against T. cruzi; type: cell-based; settings: IC50 in L6 cells/IC50 in T. cruzi
Description: as §3, §4

SMILES	SI (T. c.)
O=C(CCn1cnc([N+](=O)[O-])n1)Nc1cccc(OCc2ccccc2)c1 [Compound 11, N-(3-(benzyloxy)phenyl)-3-(3-nitro-1H-1,2,4-triazol-1-yl)propanamide]	868
N#Cc1ccc(-c2ccc(NC(=O)CCn3cnc([N+](=O)[O-])n3)cc2)cc1 [Compound 9, N-(4′-cyano-[1,1′-biphenyl]-4-yl)-3-(3-nitro-1H-1,2,4-triazol-1-yl)propanamide]	2453

same assay, conditions: Trypanosoma cruzi; T. cruzi Tulahuen C4 amastigotes; means of 2 to 3 measurements, SD < 5%; read-out: T. c. IC50

SMILES	IC50
O=C(CCn1cnc([N+](=O)[O-])n1)Nc1cccc(OCc2ccccc2)c1 [Compound 11, N-(3-(benzyloxy)phenyl)-3-(3-nitro-1H-1,2,4-triazol-1-yl)propanamide]	46 nM
N#Cc1ccc(-c2ccc(NC(=O)CCn3cnc([N+](=O)[O-])n3)cc2)cc1 [Compound 9, N-(4′-cyano-[1,1′-biphenyl]-4-yl)-3-(3-nitro-1H-1,2,4-triazol-1-yl)propanamide]	94 nM

same assay, conditions: fold antichagasic potency relative to Bnz (T. cruzi IC50 ratio)

SMILES	Bnz/comp
O=C(CCn1cnc([N+](=O)[O-])n1)Nc1cccc(OCc2ccccc2)c1 [Compound 11, N-(3-(benzyloxy)phenyl)-3-(3-nitro-1H-1,2,4-triazol-1-yl)propanamide]	48
N#Cc1ccc(-c2ccc(NC(=O)CCn3cnc([N+](=O)[O-])n3)cc2)cc1 [Compound 9, N-(4′-cyano-[1,1′-biphenyl]-4-yl)-3-(3-nitro-1H-1,2,4-triazol-1-yl)propanamide]	23

same assay, conditions: propanamide vs acetamide analog

SMILES	fold more potent against T. cruzi than the acetamide analog
N#Cc1ccc(-c2ccc(NC(=O)CCn3cnc([N+](=O)[O-])n3)cc2)cc1 [Compound 9, N-(4′-cyano-[1,1′-biphenyl]-4-yl)-3-(3-nitro-1H-1,2,4-triazol-1-yl)propanamide]	about 1.5 fold

system: bloodstream form T.b. brucei recombinant parasites expressing wild type (-tet) or elevated (+tet) levels of TbNTR; assay: microbe, parasite or virus in culture; type: cell-based; settings: Trypanosoma brucei, read-out: IC50 value T.b. brucei TbNTR (+tet)
Description: The BSF of T. brucei parasites were seeded at 1 × 10^3 mL^−1 in 200 μL of growth medium containing different concentrations of nitroheterocycle. Where appropriate, induction of the TbNTR was carried out by adding tetracycline (1 μg/mL). After incubation for 3 days at 37 °C, 20 μL of Alamar blue was added to each well and the plates incubated for a further 16 h. The cell density of each culture was determined as described before [20] and the IC50 established.

SMILES	IC50
O=C(CCn1cnc([N+](=O)[O-])n1)Nc1cccc(OCc2ccccc2)c1 [Compound 11, N-(3-(benzyloxy)phenyl)-3-(3-nitro-1H-1,2,4-triazol-1-yl)propanamide]	360 ± 20 nM
N#Cc1ccc(-c2ccc(NC(=O)CCn3cnc([N+](=O)[O-])n3)cc2)cc1 [Compound 9, N-(4′-cyano-[1,1′-biphenyl]-4-yl)-3-(3-nitro-1H-1,2,4-triazol-1-yl)propanamide]	120 ± 10 nM

same assay, conditions: Trypanosoma brucei, read-out: IC50 value T.b. brucei TbNTR (-tet)

SMILES	IC50
O=C(CCn1cnc([N+](=O)[O-])n1)Nc1cccc(OCc2ccccc2)c1 [Compound 11, N-(3-(benzyloxy)phenyl)-3-(3-nitro-1H-1,2,4-triazol-1-yl)propanamide]	3700 ± 580 nM
N#Cc1ccc(-c2ccc(NC(=O)CCn3cnc([N+](=O)[O-])n3)cc2)cc1 [Compound 9, N-(4′-cyano-[1,1′-biphenyl]-4-yl)-3-(3-nitro-1H-1,2,4-triazol-1-yl)propanamide]	550 ± 40 nM

system: purified his-tagged recombinant TbNTR; assay: Enzymatic activity with type I TbNTR; type: biochemical, T. brucei; settings: substrate 100 μM, NADH 100 μM
Description: Enzyme specific activity was measured as oxidized NADH (nmol) per min per mg of protein. […] As we have reported before with other classes of 3-nitrotriazole-based antitrypanosomal compounds, no correlation between anti-HAT activity and TbNTR specific activity was observed, [13], [15], [16], [17], [18].
Recombinant TbNTR was prepared and assayed as previously described, [39]. The specific activity of purified his-tagged TbNTR was assessed spectrophotometrically at 340 nm using various nitrotriazole substrates (100 μM) and NADH (100 μM) and expressed as nmol NADH oxidized min^−1 mg^−1 of enzyme.

SMILES	TbNTR specific enzyme activity, fold greater than benznidazole
O=C(CCn1cnc([N+](=O)[O-])n1)Nc1cccc(OCc2ccccc2)c1 [Compound 11, N-(3-(benzyloxy)phenyl)-3-(3-nitro-1H-1,2,4-triazol-1-yl)propanamide]	≤ 4 fold

Source: publication PMC5049494, “Nitrotriazole-based acetamides and propanamides with broad spectrum antitrypanosomal activity” (European Journal of Medicinal Chemistry, 2016)
